From PubChem BioAssay (NCI)
“And” between values parts separate entries of the source, which are not always exact repeats. Equal entries are not always repeated.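 Each compound was tested at five concentrations against cells in 96-well plates for 48 hours. GI50: concentration for 50% inhibition of growth. The concentration for full growth arrest is given as TGI.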

System: DLD-1 colon
Assay: inhibition of tumour cell growth, NCI panel, 48 h

Row | SMILES | TGI | GI50 [µM]
1 | OC(CC1SCCCS1)c1ccccc1 (stereo unspecified) | > 100 µM | –
2 | CCCCOC(=O)CNC(=O)OC/C=C/C#CC#C/C=C/COC(=O)NCC(=O)OCCCC | > 100 µM | > 100
3 | COc1cccc2c1C(=O)c1c(O)c3c(c(O)c1C2=O)C[C@@](O)(C(=O)CO)C[C@@H]3OC1CC(N)CC(C)O1 (stereo partly specified) | 1.18 µM and 2.67 µM | 0.127
4 | O=C1c2ccccc2C(=O)N1CCn1ccc(NC(c2ccccc2)(c2ccccc2)c2ccccc2)nc1=O | 38.9 µM | –
5 | CC(C)(C)NNC(=O)CCn1[nH]c(=O)c(Cl)c(Cl)c1=O | > 100 µM | –
6 | CN(C)CCNC(=O)c1cccc2ccc(-c3ccc(O)cc3)nc12 | 28 µM and 13.4 µM | 2.07
7 | CCC12CCCN(Cc3ccccc3)C1c1c(n(C)c3ccccc13)CC2 (stereo unspecified) | > 253 µM | –
8 | CCN(CC)CCCN1CCc2c([nH]c3ccccc23)C1c1cccnc1 (stereo unspecified) | > 100 µM | –
9 | Nc1nc(Cl)cc(NCCCCCCCCNc2cc(Cl)nc(N)n2)n1 | > 100 µM | –
10 | CC(C)N(C(=O)C12C3C4C1C1C4(C#N)C3C12C#N)C(C)C (stereo unspecified) | > 100 µM | –
11 | O=C1CCC(Cl)=CC2CCCN12 (stereo unspecified) | > 100 µM | –
12 | c1ccc2cc(-c3cc4ccccc4s3)ccc2c1 | > 100 µM | –
13 | Cc1ccc(S(=O)(=O)N(C=O)N=C2CCN(Cc3ccccc3)CC2)cc1 | > 100 µM | –
14 | CC(C)C(CCl)NC(=O)c1cccc(C(=O)N[C@H](CCl)C(C)C)n1 (stereo in doubt) | > 100 µM | –
15 | CCC(=O)CC(=O)CCC(=O)Nc1cc(C)ccc1C | > 100 µM | –
16 | O=c1/c(=C/c2ccccc2[N+](=O)[O-])sc2nnc(-c3ccco3)n12 | 97.1 µM | –
17 | COC(=O)C[C@](O)(CCCC(C)(C)O)C(=O)O[C@@H]1C(OC)=C[C@]23CCCN2CCc2cc4c(cc2[C@H]13)OCO4 | 0.228 µM | –
18 | CC(=O)CCn1ncc(Cl)c(Cl)c1=O | 29.9 µM | –
19 | CN1CC(=O)N2Cc3ccccc3-n3cccc3C2C1 (stereo unspecified) | > 100 µM | –
20 | Cc1cn2c(=O)c3ncn(C4OC(CO)C(O)C4O)c3n(C)c2n1 (stereo unspecified) | > 100 µM | –

System: DMS 114 small cell lung
Assay: inhibition of tumour cell growth, NCI panel, 48 h

Row | SMILES | TGI | GI50
21 | CCOC(=O)c1cnc2c(ccc3[nH]n(C)nc32)c1=O | > 100 µM | –
22 | NC(=S)N/N=C(\CC1OC(=O)c2ccccc21)c1ccc(Cl)cc1 (stereo unspecified) | 75 µM | –
23 | COc1ccc2occ(CCC(=O)O)c2c1 | > 100 µM | –
24 | COC(=O)C(C(=O)c1ccccc1)C(C(=O)C(=O)Nc1ccc(OC)cc1OC)C(=O)C(=O)c1ccc(C)cc1 (stereo unspecified) | > 100 µM | –
25 | CC1(C)COC(C2(C)C(=O)C=C(c3ccccc3)c3ccccc32)=N1 (stereo unspecified) | > 100 µM | –
26 | O=C(Nc1ccn(CCO)c(=O)n1)c1ccccc1 | > 100 µM | –
27 | O=C1CCC2(c3ccc(Cl)cc3)Nc3ncccc3N12 (stereo unspecified) | > 100 µM | –
28 | CC12C/C(=C\c3ccccc3)C(=O)C3C1CCCC32 | > 100 µM | –
29 | OC(CC1SCCCS1)c1ccccc1 (stereo unspecified) | > 100 µM | –
30 | CCCCOC(=O)CNC(=O)OC/C=C/C#CC#C/C=C/COC(=O)NCC(=O)OCCCC | > 100 µM | > 100 µM
31 | COc1cccc2c1C(=O)c1c(O)c3c(c(O)c1C2=O)C[C@@](O)(C(=O)CO)C[C@@H]3OC1CC(N)CC(C)O1 (stereo partly specified) | 0.167 µM and 0.299 µM | 0.0238 µM and 0.0476 µM
32 | O=C1c2ccccc2C(=O)N1CCn1ccc(NC(c2ccccc2)(c2ccccc2)c2ccccc2)nc1=O | 50 µM | –
33 | CC(C)(C)NNC(=O)CCn1[nH]c(=O)c(Cl)c(Cl)c1=O | > 100 µM | –
34 | CN(C)CCNC(=O)c1cccc2ccc(-c3ccc(O)cc3)nc12 | 10.8 µM and 7.31 µM | –
35 | CCN(CC)CCCN1CCc2c([nH]c3ccccc23)C1c1cccnc1 (stereo unspecified) | > 100 µM | –
36 | CC(C)N(C(=O)C12C3C4C1C1C4(C#N)C3C12C#N)C(C)C (stereo unspecified) | > 100 µM | –
37 | O=C1CCC(Cl)=CC2CCCN12 (stereo unspecified) | > 100 µM | –
38 | c1ccc2cc(-c3cc4ccccc4s3)ccc2c1 | > 100 µM | –
39 | CC(C)C(CCl)NC(=O)c1cccc(C(=O)N[C@H](CCl)C(C)C)n1 (stereo in doubt) | > 100 µM | –
40 | O=c1/c(=C/c2ccccc2[N+](=O)[O-])sc2nnc(-c3ccco3)n12 | 40.4 µM | –
41 | COC(=O)C[C@](O)(CCCC(C)(C)O)C(=O)O[C@@H]1C(OC)=C[C@]23CCCN2CCc2cc4c(cc2[C@H]13)OCO4 | 0.0162 µM | –
42 | Cc1cn2c(=O)c3ncn(C4OC(CO)C(O)C4O)c3n(C)c2n1 (stereo unspecified) | > 100 µM | –

System: XF 498 CNS
Assay: inhibition of tumour cell growth, NCI panel, 48 h

Row | SMILES | GI50 | TGI
43 | Clc1ccc2c(c1)[nH]c1c2nc2ccccn21 | 35.9 µM and 16 µM | 89.1 µM and 29.8 µM
44 | CCOC(=O)c1cnc2c(ccc3[nH]n(C)nc32)c1=O | – | > 100 µM
45 | NC(=S)N/N=C(\CC1OC(=O)c2ccccc21)c1ccc(Cl)cc1 (stereo unspecified) | – | > 100 µM
46 | COc1ccc2occ(CCC(=O)O)c2c1 | – | > 100 µM
47 | COC(=O)C(C(=O)c1ccccc1)C(C(=O)C(=O)Nc1ccc(OC)cc1OC)C(=O)C(=O)c1ccc(C)cc1 (stereo unspecified) | – | > 100 µM
48 | O=C1CCC2(c3ccc(Cl)cc3)Nc3ncccc3N12 (stereo unspecified) | – | > 100 µM
49 | CC12C/C(=C\c3ccccc3)C(=O)C3C1CCCC32 | – | > 100 µM
50 | OC(CC1SCCCS1)c1ccccc1 (stereo unspecified) | – | > 100 µM
